One block for each molecule: values may come before it.
Key:
[1] = target: T1, GST-ASPG (human ASPG, 60 kDa Lysophospholipase) (Homo sapiens, UniProt Q86U10); test: PAF acetylhydrolase assay kit (2-thio PAF, DTNB, […] nm); format: biochemical; details: 200 µM 2-thio-PAF, Tris/HCl pH 7.2, 10 min pre-incubation
T1 construct: full-length cDNA in pGEX-4T3, N-terminal GST tag kept, E. coli BL21, glutathione Sepharose
T1 sequence (Q86U10 1-573): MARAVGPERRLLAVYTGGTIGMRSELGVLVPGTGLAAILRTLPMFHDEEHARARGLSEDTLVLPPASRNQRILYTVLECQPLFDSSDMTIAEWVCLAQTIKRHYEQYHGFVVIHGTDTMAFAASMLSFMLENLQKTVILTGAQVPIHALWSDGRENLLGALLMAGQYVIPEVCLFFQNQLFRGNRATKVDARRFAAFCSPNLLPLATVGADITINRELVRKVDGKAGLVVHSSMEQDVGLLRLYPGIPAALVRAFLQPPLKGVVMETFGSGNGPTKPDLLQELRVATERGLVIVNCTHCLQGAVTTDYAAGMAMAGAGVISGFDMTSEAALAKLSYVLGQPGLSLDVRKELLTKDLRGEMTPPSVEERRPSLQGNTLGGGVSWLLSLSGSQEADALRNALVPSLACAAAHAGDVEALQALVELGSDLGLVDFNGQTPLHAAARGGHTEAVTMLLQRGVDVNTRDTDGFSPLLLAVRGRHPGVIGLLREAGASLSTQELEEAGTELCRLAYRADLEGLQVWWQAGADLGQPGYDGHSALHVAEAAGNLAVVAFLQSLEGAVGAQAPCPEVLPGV

[2] = target: T1, GST-ASPG (human ASPG, 60 kDa Lysophospholipase); test: Nessler ammonia assay, steady-state inhibition kinetics; format: biochemical
[3] = substrate: NC(=O)C[C@H](N)C(=O)O; test: Nessler ammonia assay, Hill fit; format: biochemical, Homo sapiens; details: Tris/HCl pH 8.6, 37 °C, 30 min, 3-39 mM substrate, sigmoidal kinetics, Hill slope 6.9

Ki [2]: 71 mM
Molecule: NC(=O)C[C@@H](N)C(=O)O [D-asparagine]
residual PAF-AH activity at 40 and 200 mM [1]: PAF-AH activity of GST-ASPG was also significantly inhibited by D-asparagine

B1: GST-ASPG (human ASPG, 60 kDa Lysophospholipase) (Homo sapiens) (protein)
chain: T1 sequence (Q86U10 1-573)
notes: full-length cDNA in pGEX-4T3, N-terminal GST tag kept, E. coli BL21, glutathione Sepharose
K0.5 [3]: 13 mM

— article PMC5443537, “The human asparaginase enzyme (ASPG) inhibits growth in leukemic cells” (PLoS ONE, 2017)
